The source made the active and inactive calls. The calls are words filed in the database; no cut-off is given here.

For data set [1], the system named is Rattus norvegicus. As to the kind of experiment: Antihypertensive activity in spontaneous hypertensive rat assessed as change in systolic blood pressure at 100 mg/kg, po dosed at 0 hrs on day 1, 2 and 3 measured on day 1 by indirect tail-cuff method. The class given is functional, Artery.
Data set [2] concerns Rattus norvegicus. Description: Antihypertensive activity in spontaneous hypertensive rat assessed as change in systolic blood pressure at 100 mg/kg, po dosed at 0 hrs on day 1, 2 and 3 measured on day 3 by indirect tail-cuff method. The class given is functional, Artery.
The test system of data set [3] is Rattus norvegicus. Description: Antihypertensive activity in spontaneous hypertensive rat assessed as change in systolic blood pressure at 50 mg/kg, po dosed at 0 hrs on day 1, 2 and 3 measured on day 3 by indirect tail-cuff method. The class given is functional, Artery.
The subject of data set [4] is Rattus norvegicus. Description: Toxicity in spontaneous hypertensive rat model at 100 mg/kg, po dosed at 0 hrs on day 1, 2 and 3 measured on day 3. Particulars: in vivo. It is filed as organism-based. Set-up: dose 100 mg/kg, route oral.

For the compound `Clc1cccc(OC2CCN(CCc3c[nH]c4ccccc34)CC2)c1`, the Activity was -11.2 mmHg in data set [1] and -8 mmHg in data set [2].
For `Fc1ccc(OC2CCN(CCc3c[nH]c4ccc(OCc5ccccc5)cc34)CC2)cc1` the same measures were -2 mmHg and -16 mmHg.
`Cc1ccc(OC2CCCN(C(=O)C(=O)c3c[nH]c4ccccc34)C2)cc1` (stereo not given): the outcome in data set [1] (Artery) and in data set [2] (Artery) was inactive.
`Cl.O=C(NC1CCN(CCc2c[nH]c3ccccc23)CC1)c1ccccc1` [INDORAMIN HYDROCHLORIDE]: in data set [3], the Activity is -79 mmHg.
Take `O=C(C(=O)N1CCC(Oc2ccc(C(F)(F)F)cc2)CC1)c1c[nH]c2ccccc12`: the outcome in data set [1] (Artery) and in data set [2] (Artery) was inactive.
`COc1cc2[nH]c(C)c(CCN3CCC(Oc4ccc(C(F)(F)F)cc4)CC3)c2cc1OC`: the Activity in data set [1] is -24 mmHg; in data set [2], -58 mmHg.
For the compound `Cc1ccc(OC2CCCN(CCc3c[nH]c4ccccc34)C2)cc1` (stereo not given), the Activity in data set [1] was -63 mmHg; in data set [2] it was -12 mmHg.
With `Cc1ccc(OC2CCN(CCc3c[nH]c4ccccc34)CC2)cc1`, the Activity in data set [1] is recorded as -48 mmHg; in data set [2], -57 mmHg.
Take `Cc1ccccc1OC1CCN(C(=O)C(=O)c2c[nH]c3ccccc23)CC1`: the outcome in data set [1] (Artery) and in data set [2] (Artery) was inactive.
Take `Cc1[nH]c2ccccc2c1C(=O)C(=O)N1CCC(Oc2ccc(F)cc2)CC1`: the outcome in data set [1] (Artery) and in data set [2] (Artery) was inactive.
As for `FC(F)(F)c1ccc(OC2CCN(CCc3c[nH]c4ccccc34)CC2)cc1`, the Activity in data set [1] was -24 mmHg; in data set [4] it was “Toxic”.
Regarding `Cc1cccc(OC2CCN(C(=O)C(=O)c3c[nH]c4ccccc34)CC2)c1`, the outcome in data set [1] (Artery) and in data set [2] (Artery) was inactive.
For the compound `Brc1ccc(OC2CCN(CCc3c[nH]c4ccccc34)CC2)cc1`, the Activity in data set [1] is on record as -49 mmHg; in data set [2] it was -59 mmHg.
The matching figures for `Cc1ccccc1OC1CCN(CCc2c[nH]c3ccccc23)CC1`: -7 mmHg and -8 mmHg.
Turning to `O=C(C(=O)N1CCC(Oc2ccc(Cl)cc2)CC1)c1c[nH]c2ccccc12`, the result in data set [1] (Artery) and in data set [2] (Artery) was inactive.
`O=C(C(=O)N1CCC(Oc2cccc(Cl)c2)CC1)c1c[nH]c2ccccc12`: the outcome in data set [1] (Artery) and in data set [2] (Artery) was inactive.
With `COc1cc2[nH]c(C)c(C(=O)C(=O)N3CCC(Oc4ccc(C(F)(F)F)cc4)CC3)c2cc1OC`, the result in data set [1] (Artery) and in data set [2] (Artery) was inactive.
`Clc1ccc(OC2CCN(CCc3c[nH]c4ccccc34)CC2)cc1`: the Activity in data set [1] is -47 mmHg; in data set [2] it was -54 mmHg.
For `Cc1cccc(OC2CCN(CCc3c[nH]c4ccccc34)CC2)c1` the same measures were -3 mmHg and -14 mmHg.
For the compound `Cc1ccc(OC2CCN(C(=O)C(=O)c3c[nH]c4ccccc34)CC2)cc1`, the result in data set [1] (Artery) and in data set [2] (Artery) was inactive.
With `O=C(C(=O)N1CCC(Oc2ccc(F)cc2)CC1)c1c[nH]c2ccccc12`, the result in data set [1] (Artery) and in data set [2] (Artery) was inactive.
Regarding `Cc1[nH]c2ccccc2c1CCN1CCC(Oc2ccc(F)cc2)CC1`, the Activity is -18 mmHg in data set [1] and “Toxic” in data set [4].
In the case of `COc1ccc2[nH]cc(C(=O)C(=O)N3CCC(Oc4ccc(F)cc4)CC3)c2c1`, the outcome in data set [1] (Artery) and in data set [2] (Artery) was inactive.
As to `Fc1ccc(OC2CCN(CCc3c[nH]c4ccccc34)CC2)cc1`, the Activity is recorded as -56 mmHg in data set [1] and -55 mmHg in data set [2].
Turning to `O=C(C(=O)N1CCC(Oc2ccccc2)CC1)c1c[nH]c2ccccc12`, the result in data set [1] (Artery) and in data set [2] (Artery) was inactive.
With `COc1ccc2[nH]cc(CCN3CCC(Oc4ccc(F)cc4)CC3)c2c1`, the Activity in data set [1] is -2 mmHg; in data set [2] it was -6 mmHg.
With `O=C(C(=O)N1CCC(Oc2ccc(F)cc2)CC1)c1c[nH]c2ccc(OCc3ccccc3)cc12`, the result in data set [1] (Artery) and in data set [2] (Artery) was inactive.
For `c1ccc(OC2CCN(CCc3c[nH]c4ccccc34)CC2)cc1`, the Activity is listed as -10 mmHg in data set [1] and -31 mmHg in data set [2].

These data come from ChEMBL document CHEMBL3244144, “Piperidylalkylindoles. 1. Hypotensive activity of 3-[2-(phenoxypiperidyl)ethyl]indoles” (J Med Chem, 1978).
